How the values were obtained:
Test in all cases: Kinase selectivity profile assay
Type in all cases: biochemical
[1] = target: T1, ABL2/ARG (Homo sapiens, UniProt P42684)
T1 construct: purchased Reaction Biology Corporation (assay service)
Outline: (§1)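 Radiometric kinase assay run by a standard protocol. Unbound phosphate was removed by washing filters in phosphoric acid, and product radioactivity gave percent remaining kinase activity versus DMSO vehicle reactions. Run in duplicate.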

[2] = target: T2, GRK1 (Homo sapiens, UniProt Q15835); conditions: 500 nM; relative to DMSO; read-out: Residual enzymatic activity
T2 construct: purchased Reaction Biology Corporation
Outline: as §1

[3] = target: T3, ARAF (Homo sapiens, UniProt P10398); conditions: 500 nM; relative to DMSO; read-out: Residual enzymatic activity
T3 construct: purchased Reaction Biology Corporation
Outline: as §1

[4] = target: T4, CDK1/cyclin B (Homo sapiens, UniProt P06493); conditions: 500 nM; relative to DMSO; read-out: Residual enzymatic activity
T4 construct: purchased Reaction Biology Corporation
Outline: as §1

[5] = target: T5, TEC (Homo sapiens, UniProt P42680); conditions: 500 nM; relative to DMSO; read-out: Residual enzymatic activity
T5 construct: purchased Reaction Biology Corporation
Outline: as §1

[6] = target: T6, ERK7/MAPK15 (Homo sapiens, UniProt Q8TD08); conditions: 500 nM; relative to DMSO; read-out: Residual enzymatic activity
T6 construct: purchased Reaction Biology Corporation
Outline: as §1

[7] = target: T7, P38a/MAPK14 (Homo sapiens, UniProt Q16539); conditions: 500 nM; relative to DMSO; read-out: Residual enzymatic activity
T7 construct: purchased Reaction Biology Corporation
Outline: as §1

[8] = target: T8, FRK/PTK5 (Homo sapiens, UniProt P42685); conditions: 500 nM, relative to DMSO
T8 construct: purchased Reaction Biology Corporation
T8 sequence (P42685 whole entry): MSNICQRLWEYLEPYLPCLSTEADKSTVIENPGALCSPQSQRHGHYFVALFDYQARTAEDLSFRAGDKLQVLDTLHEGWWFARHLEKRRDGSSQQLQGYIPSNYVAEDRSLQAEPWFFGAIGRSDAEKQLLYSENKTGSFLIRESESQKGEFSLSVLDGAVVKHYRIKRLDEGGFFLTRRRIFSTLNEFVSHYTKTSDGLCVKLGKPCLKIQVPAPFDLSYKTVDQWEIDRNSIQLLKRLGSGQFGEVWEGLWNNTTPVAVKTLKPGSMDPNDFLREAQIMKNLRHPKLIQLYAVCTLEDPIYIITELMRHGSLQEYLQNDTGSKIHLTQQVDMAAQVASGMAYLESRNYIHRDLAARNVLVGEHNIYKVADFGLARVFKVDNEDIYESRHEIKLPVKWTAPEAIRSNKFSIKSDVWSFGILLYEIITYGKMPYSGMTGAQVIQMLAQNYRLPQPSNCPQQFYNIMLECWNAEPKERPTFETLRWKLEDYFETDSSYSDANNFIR
Outline: as §1

[9] = target: T9, DCAMKL2 (Homo sapiens, UniProt Q8N568); conditions: 500 nM; relative to DMSO; read-out: Residual enzymatic activity
T9 construct: purchased Reaction Biology Corporation
Outline: as §1

[10] = target: T10, RIPK3 (Homo sapiens, UniProt Q9Y572); conditions: 500 nM; relative to DMSO; read-out: Residual enzymatic activity
T10 construct: purchased Reaction Biology Corporation
Outline: as §1

[11] = target: T11, PDGFRb (Homo sapiens, UniProt P09619)
T11 construct: purchased Reaction Biology Corporation (Malvern, PA, USA)
T11 sequence (P09619 33-1106): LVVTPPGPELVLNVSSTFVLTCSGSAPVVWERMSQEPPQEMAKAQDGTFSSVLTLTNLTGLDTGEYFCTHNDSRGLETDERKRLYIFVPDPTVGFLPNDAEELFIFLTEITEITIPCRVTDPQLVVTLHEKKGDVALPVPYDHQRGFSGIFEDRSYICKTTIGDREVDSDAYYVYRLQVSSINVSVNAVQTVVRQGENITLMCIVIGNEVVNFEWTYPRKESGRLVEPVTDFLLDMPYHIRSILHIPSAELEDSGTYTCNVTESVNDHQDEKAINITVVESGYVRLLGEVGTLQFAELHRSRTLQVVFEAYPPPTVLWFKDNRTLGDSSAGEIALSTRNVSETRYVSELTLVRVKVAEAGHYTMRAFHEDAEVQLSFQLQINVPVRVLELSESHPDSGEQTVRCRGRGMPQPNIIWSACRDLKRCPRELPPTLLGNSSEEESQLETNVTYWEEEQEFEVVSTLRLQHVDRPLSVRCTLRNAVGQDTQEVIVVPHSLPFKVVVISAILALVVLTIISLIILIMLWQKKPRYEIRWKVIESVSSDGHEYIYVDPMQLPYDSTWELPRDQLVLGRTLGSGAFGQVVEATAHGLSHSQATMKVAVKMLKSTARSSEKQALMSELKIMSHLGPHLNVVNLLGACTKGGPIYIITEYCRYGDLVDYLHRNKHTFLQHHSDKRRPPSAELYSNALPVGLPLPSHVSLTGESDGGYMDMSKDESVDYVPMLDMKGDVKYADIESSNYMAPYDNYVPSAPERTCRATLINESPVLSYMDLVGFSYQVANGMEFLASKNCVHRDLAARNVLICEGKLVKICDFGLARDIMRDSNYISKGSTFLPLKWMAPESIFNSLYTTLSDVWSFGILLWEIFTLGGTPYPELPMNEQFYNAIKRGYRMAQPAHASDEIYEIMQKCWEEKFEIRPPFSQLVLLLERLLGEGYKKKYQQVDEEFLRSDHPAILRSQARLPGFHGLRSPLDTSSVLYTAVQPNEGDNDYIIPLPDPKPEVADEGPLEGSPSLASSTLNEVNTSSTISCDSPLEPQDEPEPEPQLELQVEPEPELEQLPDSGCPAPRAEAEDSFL
Outline: as §1

[12] = target: T12, CLK1 (Homo sapiens, UniProt P49759); conditions: 500 nM; relative to DMSO; read-out: Residual enzymatic activity
T12 construct: purchased Reaction Biology Corporation
Outline: as §1

[13] = target: T13, PAK6 (Homo sapiens, UniProt Q9NQU5); conditions: 500 nM; relative to DMSO; read-out: Residual enzymatic activity
T13 construct: purchased Reaction Biology Corporation
Outline: as §1

[14] = target: T14, SNARK/NUAK2 (Homo sapiens, UniProt Q9H093); conditions: 500 nM; relative to DMSO; read-out: Residual enzymatic activity
T14 construct: purchased Reaction Biology Corporation
Outline: as §1

[15] = target: T15, MINK/MINK1 (Homo sapiens, UniProt Q8N4C8); conditions: 500 nM; relative to DMSO; read-out: Residual enzymatic activity
T15 construct: purchased Reaction Biology Corporation
Outline: as §1

[16] = target: T16, MARK4 (Homo sapiens, UniProt Q96L34); conditions: 500 nM; relative to DMSO; read-out: Residual enzymatic activity
T16 construct: purchased Reaction Biology Corporation
Outline: as §1

[17] = target: T17, CSK (Homo sapiens, UniProt P41240)
T17 construct: purchased Reaction Biology Corporation (assay service)
T17 sequence (P41240 whole entry): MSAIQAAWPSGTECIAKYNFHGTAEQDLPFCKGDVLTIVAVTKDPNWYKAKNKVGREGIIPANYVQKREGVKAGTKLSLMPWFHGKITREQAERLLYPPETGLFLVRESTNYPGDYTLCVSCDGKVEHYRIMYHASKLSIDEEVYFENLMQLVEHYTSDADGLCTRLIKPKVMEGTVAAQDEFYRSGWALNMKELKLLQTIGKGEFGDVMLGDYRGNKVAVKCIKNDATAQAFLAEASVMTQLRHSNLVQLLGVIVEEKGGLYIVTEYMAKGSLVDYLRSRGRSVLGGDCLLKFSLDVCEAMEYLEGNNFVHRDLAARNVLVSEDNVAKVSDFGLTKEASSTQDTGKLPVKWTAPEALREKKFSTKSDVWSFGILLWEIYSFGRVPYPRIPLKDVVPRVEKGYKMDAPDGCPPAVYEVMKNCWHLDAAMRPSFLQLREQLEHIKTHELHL
Outline: as §1

[18] = target: T18, STK33 (Homo sapiens, UniProt Q9BYT3); conditions: 500 nM; relative to DMSO; read-out: Residual enzymatic activity
T18 construct: purchased Reaction Biology Corporation
Outline: as §1

[19] = target: T19, GRK4 (Homo sapiens, UniProt P32298); conditions: 500 nM; relative to DMSO; read-out: Residual enzymatic activity
T19 construct: purchased Reaction Biology Corporation
Outline: as §1

[20] = target: T20, ROCK2 (Homo sapiens, UniProt O75116); conditions: 500 nM; relative to DMSO; read-out: Residual enzymatic activity
T20 construct: purchased Reaction Biology Corporation
Outline: as §1

[21] = target: T21, PKCnu/PRKD3 (Homo sapiens, UniProt O94806); conditions: 500 nM; relative to DMSO; read-out: Residual enzymatic activity
T21 construct: purchased Reaction Biology Corporation
Outline: as §1

[22] = target: T22, TNK1 (Homo sapiens, UniProt Q13470); conditions: 500 nM; relative to DMSO; read-out: Residual enzymatic activity
T22 construct: purchased Reaction Biology Corporation
Outline: as §1

[23] = target: T23, SGK3/SGKL (Homo sapiens, UniProt Q96BR1); conditions: 500 nM; relative to DMSO; read-out: Residual enzymatic activity
T23 construct: purchased Reaction Biology Corporation
Outline: as §1

[24] = target: T24, JAK1 (Homo sapiens, UniProt P23458); conditions: 500 nM; relative to DMSO; read-out: Residual enzymatic activity
T24 construct: purchased Reaction Biology Corporation
Outline: as §1

[25] = target: T25, TTBK2 (Homo sapiens, UniProt Q6IQ55); conditions: 500 nM; relative to DMSO; read-out: Residual enzymatic activity
T25 construct: purchased Reaction Biology Corporation
Outline: as §1

[26] = target: T26, CHK1 (Homo sapiens, UniProt O14757); conditions: 500 nM; relative to DMSO; read-out: Residual enzymatic activity
T26 construct: purchased Reaction Biology Corporation
Outline: as §1

[27] = target: T27, ALK6/BMPR1B (Homo sapiens, UniProt O00238); conditions: 500 nM; relative to DMSO; read-out: Residual enzymatic activity
T27 construct: purchased Reaction Biology Corporation
Outline: as §1

[28] = target: T28, FLT1/VEGFR1 (Homo sapiens, UniProt P17948); conditions: 500 nM, relative to DMSO
T28 construct: purchased Reaction Biology Corporation
T28 sequence (P17948 27-1338): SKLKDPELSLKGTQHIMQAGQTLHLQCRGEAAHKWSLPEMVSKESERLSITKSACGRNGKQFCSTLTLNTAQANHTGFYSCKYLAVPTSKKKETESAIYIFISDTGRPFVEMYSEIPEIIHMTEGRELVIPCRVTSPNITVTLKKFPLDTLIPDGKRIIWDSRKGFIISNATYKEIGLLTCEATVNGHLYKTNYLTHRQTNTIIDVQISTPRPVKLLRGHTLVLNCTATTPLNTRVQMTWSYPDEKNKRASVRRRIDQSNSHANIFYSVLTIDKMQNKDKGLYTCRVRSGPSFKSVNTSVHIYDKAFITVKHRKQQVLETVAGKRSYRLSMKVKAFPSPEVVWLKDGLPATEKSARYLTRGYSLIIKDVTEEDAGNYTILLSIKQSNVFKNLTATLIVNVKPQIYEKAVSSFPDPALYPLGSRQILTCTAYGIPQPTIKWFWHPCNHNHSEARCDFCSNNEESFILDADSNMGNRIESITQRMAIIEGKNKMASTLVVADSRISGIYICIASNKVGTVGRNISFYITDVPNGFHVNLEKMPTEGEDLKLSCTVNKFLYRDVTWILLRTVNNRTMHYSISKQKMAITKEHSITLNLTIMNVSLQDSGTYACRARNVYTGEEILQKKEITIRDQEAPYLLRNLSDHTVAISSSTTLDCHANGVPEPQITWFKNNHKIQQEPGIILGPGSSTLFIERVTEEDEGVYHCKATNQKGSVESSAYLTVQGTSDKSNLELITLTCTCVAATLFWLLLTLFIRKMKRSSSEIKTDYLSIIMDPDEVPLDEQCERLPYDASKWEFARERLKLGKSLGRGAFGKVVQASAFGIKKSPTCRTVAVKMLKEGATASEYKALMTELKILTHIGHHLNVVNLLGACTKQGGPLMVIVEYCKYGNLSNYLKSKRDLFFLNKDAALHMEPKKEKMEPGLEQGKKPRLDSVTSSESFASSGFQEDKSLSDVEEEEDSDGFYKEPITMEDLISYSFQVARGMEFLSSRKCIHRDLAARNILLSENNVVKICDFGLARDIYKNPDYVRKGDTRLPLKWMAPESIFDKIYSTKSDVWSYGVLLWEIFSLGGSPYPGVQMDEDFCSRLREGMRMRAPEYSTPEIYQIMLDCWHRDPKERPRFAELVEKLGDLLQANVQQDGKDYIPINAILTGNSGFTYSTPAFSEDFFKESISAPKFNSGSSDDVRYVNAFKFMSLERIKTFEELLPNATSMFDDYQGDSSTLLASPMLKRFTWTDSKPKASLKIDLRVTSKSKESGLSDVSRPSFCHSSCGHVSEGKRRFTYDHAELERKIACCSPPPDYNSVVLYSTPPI
Outline: as §1

[29] = target: T29, STK32B/YANK2 (Homo sapiens, UniProt Q9NY57); conditions: 500 nM; relative to DMSO; read-out: Residual enzymatic activity
T29 construct: purchased Reaction Biology Corporation
Outline: as §1

[30] = target: T30, CDK1/cyclin E (Homo sapiens, UniProt P06493); conditions: 500 nM; relative to DMSO; read-out: Residual enzymatic activity
T30 construct: purchased Reaction Biology Corporation
Outline: as §1

[31] = target: T31, STK32C/YANK3 (Homo sapiens, UniProt Q86UX6); conditions: 500 nM; relative to DMSO; read-out: Residual enzymatic activity
T31 construct: purchased Reaction Biology Corporation
Outline: as §1

[32] = target: T32, ALK4/ACVR1B (Homo sapiens, UniProt P36896); conditions: 500 nM; relative to DMSO; read-out: Residual enzymatic activity
T32 construct: purchased Reaction Biology Corporation
Outline: as §1

[33] = target: T33, BTK (Homo sapiens, UniProt Q06187); conditions: 500 nM; relative to DMSO; read-out: Residual enzymatic activity
T33 construct: purchased Reaction Biology Corporation
Outline: as §1

[34] = target: T34, PKCepsilon (Homo sapiens, UniProt Q02156); conditions: 500 nM; relative to DMSO; read-out: Residual enzymatic activity
T34 construct: purchased Reaction Biology Corporation
Outline: as §1

[35] = target: T35, c-MER (Homo sapiens, UniProt Q12866); conditions: 500 nM; relative to DMSO; read-out: Residual enzymatic activity
T35 construct: purchased Reaction Biology Corporation
Outline: as §1

[36] = target: T36, MSSK1/STK23 (Homo sapiens, UniProt Q9UPE1); conditions: 500 nM; relative to DMSO; read-out: Residual enzymatic activity
T36 construct: purchased Reaction Biology Corporation
Outline: as §1

[37] = target: T37, DAPK2 (Homo sapiens, UniProt Q9UIK4); conditions: 500 nM; relative to DMSO; read-out: Residual enzymatic activity
T37 construct: purchased Reaction Biology Corporation
Outline: as §1

[38] = target: T38, FGR (Homo sapiens, UniProt P09769)
T38 construct: purchased Reaction Biology Corporation (assay service)
T38 sequence (P09769 whole entry): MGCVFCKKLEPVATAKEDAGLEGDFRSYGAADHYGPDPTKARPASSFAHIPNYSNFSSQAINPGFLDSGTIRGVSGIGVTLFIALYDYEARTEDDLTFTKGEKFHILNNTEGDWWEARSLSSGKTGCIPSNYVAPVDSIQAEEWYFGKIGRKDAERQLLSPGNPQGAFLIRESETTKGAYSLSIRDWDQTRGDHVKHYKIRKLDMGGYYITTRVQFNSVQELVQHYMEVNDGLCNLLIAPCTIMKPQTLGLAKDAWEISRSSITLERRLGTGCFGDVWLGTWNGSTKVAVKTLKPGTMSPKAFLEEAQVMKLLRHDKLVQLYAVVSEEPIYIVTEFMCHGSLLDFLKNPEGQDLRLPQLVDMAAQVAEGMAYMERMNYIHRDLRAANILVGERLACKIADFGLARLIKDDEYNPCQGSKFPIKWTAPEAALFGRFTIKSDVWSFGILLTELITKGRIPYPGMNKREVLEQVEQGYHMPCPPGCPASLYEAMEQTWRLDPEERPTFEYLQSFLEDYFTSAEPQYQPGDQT
Outline: as §1

[39] = target: T39, FER (Homo sapiens, UniProt P16591); conditions: 500 nM; relative to DMSO; read-out: Residual enzymatic activity
T39 construct: purchased Reaction Biology Corporation
Outline: as §1

[40] = 500 nM, relative to DMSO, read-out: Residual enzymatic activity
[41] = 10-dose mode, threefold serial dilution from 10 μM
[42] = read-out: Residual enzymatic activity

T1 sequence (P42684 whole entry): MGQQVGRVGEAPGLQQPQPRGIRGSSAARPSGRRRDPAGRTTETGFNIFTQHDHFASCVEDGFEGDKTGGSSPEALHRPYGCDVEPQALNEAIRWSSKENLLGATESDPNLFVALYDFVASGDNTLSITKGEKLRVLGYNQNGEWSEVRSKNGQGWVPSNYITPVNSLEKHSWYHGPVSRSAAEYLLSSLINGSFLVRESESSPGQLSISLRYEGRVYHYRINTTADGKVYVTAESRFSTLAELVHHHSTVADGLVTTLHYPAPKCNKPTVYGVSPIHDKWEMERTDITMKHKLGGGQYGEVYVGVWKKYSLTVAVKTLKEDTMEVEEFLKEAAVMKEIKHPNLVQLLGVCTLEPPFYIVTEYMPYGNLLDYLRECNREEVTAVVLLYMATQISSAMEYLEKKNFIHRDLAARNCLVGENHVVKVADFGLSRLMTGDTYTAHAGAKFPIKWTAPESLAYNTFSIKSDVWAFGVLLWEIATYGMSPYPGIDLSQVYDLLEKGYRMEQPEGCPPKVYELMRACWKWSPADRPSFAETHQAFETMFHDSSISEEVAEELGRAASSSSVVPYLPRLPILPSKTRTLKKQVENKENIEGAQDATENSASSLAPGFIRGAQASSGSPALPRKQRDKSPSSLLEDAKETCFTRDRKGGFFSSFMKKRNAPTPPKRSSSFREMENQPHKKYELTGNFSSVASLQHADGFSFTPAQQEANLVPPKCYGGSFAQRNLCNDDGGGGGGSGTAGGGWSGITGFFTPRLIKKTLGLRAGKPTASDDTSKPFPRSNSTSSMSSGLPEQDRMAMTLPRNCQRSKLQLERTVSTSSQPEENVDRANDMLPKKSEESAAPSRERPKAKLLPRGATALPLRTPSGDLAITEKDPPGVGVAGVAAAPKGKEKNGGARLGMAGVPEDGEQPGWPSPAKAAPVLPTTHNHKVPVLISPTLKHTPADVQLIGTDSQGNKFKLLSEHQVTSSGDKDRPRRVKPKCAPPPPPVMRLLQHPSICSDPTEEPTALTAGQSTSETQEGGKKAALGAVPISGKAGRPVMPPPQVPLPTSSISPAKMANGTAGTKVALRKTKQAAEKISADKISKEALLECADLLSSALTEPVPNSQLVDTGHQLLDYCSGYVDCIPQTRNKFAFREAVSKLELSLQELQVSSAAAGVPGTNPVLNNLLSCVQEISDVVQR

COc1cc(Nc2ncnc(Nc3cc4c(cn3)NC(=O)C(C)(C)O4)n2)cc(OC)c1OC [MT-SYK-03]
remaining activity at 0.5 µM [1, 40]: 32.3% | IC50 [1, 41]: 120 nM | remaining activity at 0.5 µM [2]: 105% | remaining activity at 0.5 µM [3]: 59.7% | remaining activity at 0.5 µM [4]: 96% | remaining activity at 0.5 µM [5]: 71% | remaining activity at 0.5 µM [6]: 100% | remaining activity at 0.5 µM [7]: 110% | Residual enzymatic activity [8]: 56.5% | remaining activity at 0.5 µM [8, 42]: > 54% | remaining activity at 0.5 µM [9]: 99.1% | remaining activity at 0.5 µM [10]: 108% | remaining activity at 0.5 µM [11, 40]: 24.5% | IC50 [11, 41]: 4.5 nM | remaining activity at 0.5 µM [12]: 90.4% | remaining activity at 0.5 µM [13]: 96.5% | remaining activity at 0.5 µM [14]: 102% | remaining activity at 0.5 µM [15]: 92% | remaining activity at 0.5 µM [16]: 92.1% | remaining activity at 0.5 µM [17, 40]: 34.8% | IC50 [17, 41]: 238 nM | remaining activity at 0.5 µM [18]: 70.5% | remaining activity at 0.5 µM [19]: 99.7% | remaining activity at 0.5 µM [20]: 91.1% | remaining activity at 0.5 µM [21]: 99.9% | remaining activity at 0.5 µM [22]: 44.7% | remaining activity at 0.5 µM [23]: 103% | remaining activity at 0.5 µM [24]: 63.4% | remaining activity at 0.5 µM [25]: 109% | remaining activity at 0.5 µM [26]: 91.4% | remaining activity at 0.5 µM [27]: 143% | Residual enzymatic activity [28]: did not inhibit | remaining activity at 0.5 µM [28, 42]: 65.4% | remaining activity at 0.5 µM [29]: 103% | remaining activity at 0.5 µM [30]: 94.6% | remaining activity at 0.5 µM [31]: 115% | remaining activity at 0.5 µM [32]: 125% | remaining activity at 0.5 µM [33]: 51.3% | remaining activity at 0.5 µM [34]: 106% | remaining activity at 0.5 µM [35]: 109% | remaining activity at 0.5 µM [36]: 106% | remaining activity at 0.5 µM [37]: 98.4% | remaining activity at 0.5 µM [38, 40]: 22.6% | IC50 [38, 41]: 9 nM | remaining activity at 0.5 µM [39]: 78.8%
